Assay results reported in EPA's ToxRefDB 2.

Legend:
mouse [1] = conditions: Carcinogenicity; other; Oral; Feed; dose end: 104 week; group: systemic; systemic / pathology microscopic / eye / cataract + systemic / pathology microscopic / kidney / vacuolization
rat [2] = conditions: Combined chronic toxicity/carcinogenicity; fischer; Oral; [Not Specified]; dose end: 105 week; group: systemic; systemic / in life observation / body weight / body weight gain + systemic / pathology microscopic / kidney / cytoplasmic alteration + …
rat [3] = conditions: Subchronic oral toxicity in rodents, fischer, Feed, dose end: 13 week, group: systemic
mouse [4] = conditions: Carcinogenicity, cd1, Oral, Feed, dose end: 94 week, group: systemic
rat [5] = conditions: Subchronic oral toxicity in rodents, sprague dawley, Feed, dose end: 13 week, group: systemic, systemic / clinical chemistry / protein / protein + systemic / in life observation / body weight / body weight + systemic / in life …
rat [6] = conditions: Multigenerational reproductive toxicity study, wistar, Oral, Feed, dose end: 2 generation
rabbit = conditions: Prenatal developmental toxicity study, new zealand white, Oral, Gavage/Intubation, dose end: 18 GD
rat [7] = conditions: Combined chronic toxicity/carcinogenicity; sprague dawley; Oral; Feed; dose end: 24 month; group: systemic; systemic / in life observation / body weight / body weight + systemic / in life observation / body weight / body weight gain + systemic / …
dog [8] = conditions: Chronic toxicity; beagle; Oral; Feed; dose end: 52 week; group: systemic; systemic / clinical chemistry / alkaline phosphatase (alp/alk) / alkaline phosphatase (alp/alk) + systemic / clinical chemistry / …
dog [9] = conditions: Subchronic oral toxicity in nonrodent, beagle, Feed, dose end: 90 day, group: systemic
mouse [10] = conditions: Prenatal developmental toxicity study, cd1, Oral, Gavage/Intubation, dose end: 15 GD
rat [11] = conditions: Carcinogenicity; other; Oral; Feed; dose end: 24 month; group: systemic; systemic / pathology microscopic / [other] / [other]
mouse [12] = conditions: Prenatal developmental toxicity study, cd1, Oral, [Not Specified], dose end: 14 GD
mouse [13] = conditions: Multigenerational reproductive toxicity study, cd1, Oral, Water, dose end: 2 generation, group: offspring
rat [14] = conditions: Prenatal developmental toxicity study, sprague dawley, Oral, Gavage/Intubation, dose end: 15 GD
mouse [15] = conditions: Carcinogenicity, b6c3f1, Oral, Feed, dose end: 78 week, group: systemic
mouse [16] = conditions: Prenatal developmental toxicity study, cd1, Oral, Gavage/Intubation, dose end: 15 GD; remark: listed apart in the source
rat [17] = conditions: Subchronic oral toxicity in rodents, fischer, Feed, dose end: 45 day, group: systemic, systemic / in life observation / body weight / body weight gain
mouse [18] = conditions: Subchronic oral toxicity in rodents, b6c3f1, Feed, dose end: 45 day, group: systemic, systemic / in life observation / mortality / mortality
rat [19] = conditions: Carcinogenicity; fischer; Oral; Feed; dose end: 78 week; group: systemic; systemic / in life observation / body weight / body weight gain + systemic / pathology microscopic / peritoneum / neoplasm nos + systemic / …
[20] = systemic / clinical chemistry / creatinine / creatinine + systemic / hematology / erythrocyte (rbc) count differential / erythrocyte (rbc…
[21] = systemic / in life observation / body weight / body weight gain + systemic / organ weight / liver / relative to body weight + systemic / …
[22] = group: offspring, systemic / in life observation / body weight / offspring (pup) weight
[23] = group: parental, systemic / in life observation / body weight / body weight + systemic / in life observation / body weight / body weight gain + systemic / in…
[24] = group: developmental, developmental / developmental malformation / bone / [other] + developmental / developmental malformation / bone / misshapen
[25] = group: maternal, reproductive / reproductive performance / aborted / aborted + reproductive / reproductive performance / postimplantation loss / …
[26] = systemic / organ weight / liver / relative to body weight + systemic / pathology microscopic / liver / vacuolization
[27] = systemic / organ weight / liver / relative to body weight + systemic / pathology microscopic / liver / vacuolization + systemic / in life …
[28] = group: developmental, developmental / developmental malformation / bone / incomplete ossification + systemic / in life observation / body weight / fetal weight + …
[29] = group: maternal, systemic / organ weight / uterus / nos + systemic / in life observation / clinical signs / altered breathing rate + systemic / in life …
[30] = group: developmental, systemic / in life observation / body weight / offspring (pup) weight gain
[31] = group: maternal, systemic / in life observation / mortality / mortality
[32] = systemic / in life observation / body weight / offspring (pup) weight + systemic / organ weight / liver / relative to body weight + systemic…
[33] = group: developmental, developmental / developmental malformation / bone / [other] + developmental / developmental malformation / bone / delayed ossification + …
[34] = group: maternal, systemic / in life observation / body weight / body weight + systemic / in life observation / food consumption / food consumption + systemic…
[35] = systemic / in life observation / body weight / body weight
[36] = systemic / in life observation / body weight / body weight + systemic / in life observation / mortality / mortality
[37] = group: developmental, developmental / developmental malformation / bone / [other] + developmental / developmental malformation / general / [other] + systemic / in…
[38] = group: maternal, reproductive / reproductive performance / implantations / implantations + reproductive / reproductive performance / resorptions / …
[39] = group: maternal, systemic / pathology gross / spleen / enlarged

## CCOc1nc(F)cc2nc(S(=O)(=O)Nc3c(Cl)cccc3Cl)nn12 [Diclosulam]
Mouse [1]
  LEL: 51.3 mg/kg/day
  LOAEL: 51.3 mg/kg/day
  NEL: < 51.3 mg/kg/day
  NOAEL: < 51.3 mg/kg/day
Rat [2]
  LEL: 102 mg/kg/day
  LOAEL: 102 mg/kg/day
  NEL: 5.1 mg/kg/day
  NOAEL: 5.1 mg/kg/day
Rat [3]; [20]
  LEL: 50 mg/kg/day
  NEL: < 50 mg/kg/day
  NOAEL: 50 mg/kg/day
Rat [3]; systemic / organ weight / liver / relative to body weight + systemic / pathology microscopic / liver / hypertrophy + systemic / pathology …
  LOAEL: 100 mg/kg/day

## COCC(C)N(C(=O)CCl)c1c(C)csc1C (centres undefined) [Dimethenamid]
Mouse [4]; systemic / in life observation / body weight / body weight gain
  LOAEL: 200 mg/kg/day
Mouse [4]; [21]
  LEL: 200 mg/kg/day
  NEL: 40.1 mg/kg/day
  NOAEL: 40.1 mg/kg/day
Rat [5]
  LEL: 98 mg/kg/day
  LOAEL: 98 mg/kg/day
  NEL: 33.5 mg/kg/day
  NOAEL: 33.5 mg/kg/day
Rat [6]; [22]
  LEL: 150 mg/kg/day
  LOAEL: 150 mg/kg/day
  NEL: 36 mg/kg/day
  NOAEL: 36 mg/kg/day
Rat [6]; [23]
  LEL: 150 mg/kg/day
  LOAEL: 150 mg/kg/day
  NEL: 36 mg/kg/day
  NOAEL: 36 mg/kg/day
rabbit; [24]
  LEL: 150 mg/kg/day
  LOAEL: 150 mg/kg/day
  NEL: 75 mg/kg/day
  NOAEL: 75 mg/kg/day
rabbit; [25]
  LEL: 150 mg/kg/day
  LOAEL: 150 mg/kg/day
  NEL: 75 mg/kg/day
  NOAEL: 75 mg/kg/day
Rat [7]
  LEL: 36 mg/kg/day
  LOAEL: 36 mg/kg/day
  NEL: 5.1 mg/kg/day
  NOAEL: 5.1 mg/kg/day
Dog [8]
  LEL: 48.7 mg/kg/day
  LOAEL: 48.7 mg/kg/day
  NEL: 10.1 mg/kg/day
  NOAEL: 10.1 mg/kg/day
Dog [9]; [26]
  LEL: 33.6 mg/kg/day
  LOAEL: 33.6 mg/kg/day
Dog [9]; [27]
  NEL: 4.72 mg/kg/day
  NOAEL: 4.72 mg/kg/day

## OCCOCCOCCO [Triethylene glycol]
Mouse [10]; group: developmental, developmental / developmental malformation / bone / incomplete ossification + systemic / in life observation / body weight / fetal weight
  LEL: 5630 mg/kg/day
Mouse [10]; [28]
  LOAEL: > 11300 mg/kg/day
  NEL: 563 mg/kg/day
  NOAEL: ≥ 11300 mg/kg/day
Mouse [10]; group: maternal, systemic / organ weight / uterus / nos
  LEL: 5630 mg/kg/day
Mouse [10]; [29]
  LOAEL: > 11300 mg/kg/day
  NEL: 563 mg/kg/day
  NOAEL: ≥ 11300 mg/kg/day
Rat [11]
  LEL: 4 mg/kg/day
  LOAEL: > 4 mg/kg/day
  NEL: < 4 mg/kg/day
  NOAEL: ≥ 4 mg/kg/day
Mouse [12]; [30]
  LEL: 11300 mg/kg/day
  LOAEL: 11300 mg/kg/day
  NEL: 4500 mg/kg/day
  NOAEL: 4500 mg/kg/day
Mouse [12]; [31]
  LEL: 11300 mg/kg/day
  LOAEL: 11300 mg/kg/day
  NEL: 4500 mg/kg/day
  NOAEL: 4500 mg/kg/day
Mouse [13]; systemic / in life observation / body weight / offspring (pup) weight
  LEL: 2000 mg/kg/day
Mouse [13]; systemic / in life observation / body weight / offspring (pup) weight + systemic / organ weight / liver / relative to body weight
  NEL: 400 mg/kg/day
Mouse [13]; [32]
  LOAEL: > 4000 mg/kg/day
  NOAEL: ≥ 4000 mg/kg/day
Rat [14]; [33]
  LEL: 11300 mg/kg/day
  LOAEL: > 11300 mg/kg/day
  NEL: 5630 mg/kg/day
  NOAEL: ≥ 11300 mg/kg/day
Rat [14]; [34]
  LEL: 5630 mg/kg/day
  LOAEL: > 11300 mg/kg/day
  NEL: 1130 mg/kg/day
  NOAEL: ≥ 11300 mg/kg/day

## Nc1ccc(S(=O)(=O)c2ccc(N)cc2)cc1 [Dapsone]
Mouse [15]; [35]
  LOAEL: 75 mg/kg/day
  NOAEL: < 75 mg/kg/day
Mouse [15]; [36]
  LEL: 75 mg/kg/day
  NEL: < 75 mg/kg/day
Mouse [16]; [37]
  LEL: 200 mg/kg/day
  LOAEL: > 200 mg/kg/day
  NEL: 100 mg/kg/day
  NOAEL: ≥ 200 mg/kg/day
Mouse [16]; [38]
  LOAEL: > 200 mg/kg/day
  NOAEL: ≥ 200 mg/kg/day
Mouse [16]; [39]
  LEL: 50 mg/kg/day
  NEL: < 50 mg/kg/day
Rat [17]
  LEL: 60 mg/kg/day
  LOAEL: 60 mg/kg/day
  NEL: < 60 mg/kg/day
  NOAEL: < 60 mg/kg/day
Mouse [18]
  LEL: 300 mg/kg/day
  LOAEL: > 7500 mg/kg/day
  NEL: < 300 mg/kg/day
  NOAEL: ≥ 7500 mg/kg/day
Rat [19]
  LEL: 30 mg/kg/day
  LOAEL: > 60 mg/kg/day
  NEL: < 30 mg/kg/day
  NOAEL: ≥ 60 mg/kg/day
